The values below are quoted from earlier work in US20090060993A1, “SOLID PHARMACEUTICAL COMPOSITION FOR ENHANCED DELIVERY OF COENZYME Q-10 AND UBIQUINONES” (priority 2007, published 2009).

The conditions of this series: humans.

SMILES strings stand for the structures.

On to `COC1=C(OC)C(=O)C(C/C=C(\C)CC/C=C(\C)CC/C=C(\C)CC/C=C(\C)CC/C=C(\C)CC/C=C(\C)CC/C=C(\C)CC/C=C(\C)CC/C=C(\C)CCC=C(C)C)=C(C)C1=O` [coenzyme Q-10, ubidecarenone], for which the total absorption entry is “less than 10%”.
